Assay results from patent publication US20120237941A1, “METHOD FOR SCREENING ACTIVE AGENTS THAT STIMULATE THE EXPRESSION OF ARNT2 TO IMPROVE THE SKIN'S BARRIER FUNCTION” (CHANEL PARFUMS BEAUTE, priority 2009, published 2012).

Test system: ARNT2 mRNA
Assay: Stimulation of the expression of ARNT2 mRNA in normal human keratinocytes (real-time RT-PCR)
Format: cell-based
Details: 0.001% active agent (w/w), 24 hours, fold vs untreated control (1.00), housekeeping gene RPLPO
Procedure: Keratinocytes derived from neonatal foreskins (Invitrogen, CA, USA) were cultured in 6-well plates in keratinocyte culture medium with supplement (EpiLife, Invitrogen). After culturing for 24 hours at 37° C., the 70% confluent cells were washed with PBS buffer (Invitrogen, CA) and incubated with basic keratinocytes culture medium (EpiLife, Invitrogen) containing the active agent to be tested, for 24 hours, at increasing concentrations. The cytotoxicity of the active agent was evaluated in human cultured keratinocytes before testing the activity.
Keratinocytes were treated with various concentrations of active agent in triplicates for 24 hours. The mRNA was isolated using the Qiagen RNeasy kit (Qiagen, CA) and quantified using the QuantIt kit (Invitrogen, CA).
The PCR primers were obtained from Applied Biosystems (Applied Biosystems, CA). The housekeeping gene used was RPLPO.
To quantify the expression of messenger RNA of ARNT2 in a treated sample relative to an untreated sample, real-time polymerase chain amplification (RT-PCR) was performed. […]
The relative quantification of the expression of the target gene was performed using the Pfaffl mathematical model (Pfaffl, M W, Nucleic Acids Res. 29(9), p. E45, 2001). […]
The effect of this botanical extract on the expression of the ARNT2 mRNA was evaluated on cultured keratinocytes. […]

## CC(=O)Oc1cc(C=Cc2ccc(OC(=O)CCCCC3CCSS3)cc2)cc(OC(C)=O)c1 (stereo not shown) [Active agent tested, resveratrol 3,5-diacetate-4′-lipoate]
  Stimulation of ARNT2 mRNA: 1.81
